Test results as given in publication PMC4097383 (Drug and alcohol dependence, 2013).

Key:
[1] = target: T1, human cardiac calsequestrin (CASQ2) (Homo sapiens, UniProt O14958); assay: isothermal titration calorimetry; format: binding
T1 sequence (O14958 20-399): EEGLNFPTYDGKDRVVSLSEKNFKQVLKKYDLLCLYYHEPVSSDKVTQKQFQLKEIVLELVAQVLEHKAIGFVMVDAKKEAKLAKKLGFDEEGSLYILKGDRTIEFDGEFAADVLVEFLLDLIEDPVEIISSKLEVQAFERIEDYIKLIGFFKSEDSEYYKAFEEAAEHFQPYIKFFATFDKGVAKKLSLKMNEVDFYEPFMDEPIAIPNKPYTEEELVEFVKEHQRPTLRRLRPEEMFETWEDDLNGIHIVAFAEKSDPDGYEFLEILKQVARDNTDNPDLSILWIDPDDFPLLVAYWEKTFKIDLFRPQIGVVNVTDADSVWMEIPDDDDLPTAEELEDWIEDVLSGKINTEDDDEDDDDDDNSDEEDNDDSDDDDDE

[2] = target: T1, human cardiac calsequestrin (CASQ2); assay: equilibrium dialysis and atomic absorption spectroscopy; format: biochemical; conditions: 350 μM cocaine, 1 mg/mL CASQ2, 1 h preincubation
[3] = target: the molecule itself; assay: SEC-MALS

Molecule: COC(=O)[C@H]1[C@@H](OC(=O)c2ccccc2)C[C@@H]2CC[C@H]1N2C [cocaine]
- Kd [1]: 63.5 ± 2.7 µM
- % reduction in Ca2+ binding capacity at 350 μM [2]: ~ 50%

B1: human cardiac calsequestrin (CASQ2) (natural protein)
chain: GLNFPTYDGKDRVVSLSEKNFKQVLKKYDLLCLYYHEPVSSDKVTQKQFQLKEIVLELVAQVLEHKAIGFVMVDAKKEAKLAKKLGFDEEGSLYILKGDRTIEFDGEFAADVLVEFLLDLIEDPVEIISSKLEVQAFERIEDYIKLIGFFKSEDSEYYKAFEEAAEHFQPYIKFFATFDKGVAKKLSLKMNEVDFYEPFMDEPIAIPNKPYTEEELVEFVKEHQRPTLRRLRPEEMFETWEDDLNGIHIVAFAEKSDPDGYEFLEILKQVARDNTDNPDLSILWIDPDDFPLLVAYWEKTFKIDLFRPQIGVVNVTDADSVWMEIPDDDDLPTAEELEDWIEDVLSGKINTEDDDEDDDDDDNSDEEDNDDSDDDDDE
- stoichiometry N [3]: 2
